ChEMBL document CHEMBL1955772, “Cytotoxic terpenoids from Juglans sinensis leaves and twigs” (Bioorg Med Chem Lett, 2012)

Assays:
B16-F10 = experiment: Cytotoxicity against mouse B16F10 cells after 24 hrs by MTS assay; assay type: functional, cell-based; details: B16-F10, 24 h
HEp-2 = experiment: Cytotoxicity against human Hep2 cells after 24 hrs by MTS assay; assay type: functional, cell-based; details: HEp-2, 24 h
[1] = Cytotoxicity against human U87MG cells after 24 hrs by MTS assay; assay type: functional, cell-based, U-87MG ATCC; details: U-87 MG
MCF7 = experiment: Cytotoxicity against human MCF7 cells after 24 hrs by MTS assay; assay type: functional, cell-based; details: MCF7, 24 h

Compound	IC50 (B16-F10) [nM]	IC50 (HEp-2) [µM]	IC50 [1] [nM]	IC50 (MCF7) [µM]
C[C@H]1[C@H](C)CC[C@]2(C(=O)O[C@@H]3O[C@H](CO)[C@@H](O)[C@H](O)[C@H]3O)CC[C@]3(C)C(=CC[C@@H]4[C@@]5(C)C[C@@H](O)[C@@H](O)[C@@](C)(CO)[C@@H]5CC[C@]43C)[C@H]12	> 10000	> 10	> 10000	> 10
CC(C)(O[C@@H]1O[C@H](CO)[C@@H](O)[C@H](O)[C@H]1O)[C@@H]1CC[C@@]2(C)CCC=C(CO)[C@@H]2C1	> 10000	> 10	> 10000	> 10
CC(C)(O)[C@@H]1C[C@H]2[C@@](C)(C[C@@H]3C[C@@]32C)C[C@@H]1O	> 10000	4.22	1130	1.81
CC(C)(O)[C@@H]1C[C@H]2[C@](C)(CC1=O)C[C@@H]1C[C@@]12C	300	5.25	1160	4.11
CO[C@@H]1O[C@@]2(CO)CC[C@@]13CC[C@]1(C)[C@H](C[C@@H](O)[C@@H]4[C@@]5(C)CC[C@H](O)[C@](C)(CO)[C@@H]5CC[C@]41C)[C@@H]3[C@]2(C)O (relative stereo)	1530	5.52	3290	1.25
CC1(C)C=C2[C@H]3CC[C@@H]4[C@@]5(C)[C@@H](O)C[C@H](O)C(C)(C)[C@@H]5CC[C@@]4(C)[C@]3(C)CC[C@@]2(C)CC1 (relative stereo)	300	5.4	1310	3.86
CC(C)(O)[C@@H]1C[C@H]2[C@@](C)(C[C@@H]3C[C@@]32C)C[C@H]1O (relative stereo)	> 10000	> 10	> 10000	> 10
